Patent publication US8435976B2, “4-substituted pyridin-3-yl-carboxamide compounds and methods of use” (F. Hoffmann-La Roche, priority 2009, dated 2013)
Values belong to the molecule of their own block, whether it stands above or below them.

Key:
PIM2 = molecular target: T1, PIM2 (Homo sapiens, UniProt Q9P1W9); assay: Pim-2 kinase enzymatic assay (Caliper LC3000, FAM-Pimtide substrate); format: biochemical; conditions: 50 pM PIM2, 10 μM ATP, 90 minutes; read-out: PIM2 LC3K (Ki)
T1 construct: made in house
T1 sequence (Q9P1W9 whole entry): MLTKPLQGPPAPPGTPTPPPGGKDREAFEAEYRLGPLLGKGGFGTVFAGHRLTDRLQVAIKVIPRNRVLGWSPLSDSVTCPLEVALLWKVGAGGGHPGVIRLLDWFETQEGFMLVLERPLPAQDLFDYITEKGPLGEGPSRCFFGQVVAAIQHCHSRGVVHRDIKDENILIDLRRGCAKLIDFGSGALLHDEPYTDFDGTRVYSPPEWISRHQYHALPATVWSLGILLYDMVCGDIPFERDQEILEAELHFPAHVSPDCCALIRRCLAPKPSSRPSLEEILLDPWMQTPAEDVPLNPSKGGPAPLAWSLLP
Protocol: (§1) Reaction Buffer contained 10 mM HEPES, pH 7.2, 10 mM MgCl2, 0.01% Tween 20, 2 mM DTT.
(§2) PIM reactions were carried out in a final volume of 10 μL per well in a 384-well plate. […] The separation of product and substrate was optimized by choosing voltages and pressure using Caliper's Optimizer software (Hopkinton, Mass.). The separation conditions used a downstream voltage of −500V, an upstream voltage of −2150V, and a screening pressure of −1.2 psi. […] Substrate conversion was calculated from the electrophoregram using HTS Well Analyzer software (Caliper Life Sciences, Hopkinton, Mass.). Ki values for the test compound were calculated.

BaF3 PIM1 cells = BaF3 PIM1 cells (Homo sapiens, UniProt P11309); assay: BaF3 PIM1 cell proliferation (Cell Titer Glo); format: cell-based; conditions: incubated overnight; read-out: Prolif BaF3_PIM1 (IC50)
BaF3 PIM1 cells, sequence (P11309 whole entry, change not shown): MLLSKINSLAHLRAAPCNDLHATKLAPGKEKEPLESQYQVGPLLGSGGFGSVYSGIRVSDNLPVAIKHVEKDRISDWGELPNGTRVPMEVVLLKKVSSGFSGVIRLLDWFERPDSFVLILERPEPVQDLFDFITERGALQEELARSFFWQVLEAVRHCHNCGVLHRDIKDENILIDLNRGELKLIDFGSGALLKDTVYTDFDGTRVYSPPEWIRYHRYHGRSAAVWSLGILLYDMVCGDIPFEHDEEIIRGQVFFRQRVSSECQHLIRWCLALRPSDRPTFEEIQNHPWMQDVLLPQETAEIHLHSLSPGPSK
Protocol: (§3) BaF3 parental line was obtained from the DSMZ repository. BaF3 lines transfected with PIM1 or PIM2 were generated. Mouse IL-3 was purchased from R&D Systems. G418 was purchased from Clontech. Media for BaF3 parental line contained RPMI, 10% FBS, 2 mM L-Glutamine, 2 ng/mL mIL-3. Media for BaF3 PIM1 & 2 lines contained RPMI, 10% FBS, 2 mM L-Glutamine, […]. Media for MM1.S line contained RPMI, 10% FBS, 2 mM L-Glutamine.
(§4) BaF3 parental cells, BaF3 PIM1 cells, BaF3 PIM2 cells, and MM1.S cells were seeded at 2 k/well, 5 k/well, 5 k/well, and 10 k/well respectively, in a 384-well plate, at 45 μL/well. Test compound was added at 5 μL/well. BaF3 cells (parental and transfected) were incubated overnight, while MM1.S cells were incubated for 72 hours at 37° C., 5% CO2. Cell Titer Glo Reagent (Promega) was added at 50 μL/well, the plates were incubated for 30 minutes, and their luminescence read on an HT Analyst. IC50/EC50 values for the test compound were calculated.

MM1.S cells = assay: MM1.S cell proliferation, 72 hours (Cell Titer Glo); format: cell-based; conditions: Homo sapiens, 72 hours, read-out: Prolif MM1S ATP (EC50)
Protocol: as §3, §4

BaF3 PIM2 cells = BaF3 PIM2 cells (Homo sapiens, UniProt Q9P1W9); assay: BaF3 PIM2 cell proliferation (Cell Titer Glo); format: cell-based; conditions: incubated overnight; read-out: Prolif BaF3_PIM2 (IC50)
BaF3 PIM2 cells, sequence (Q9P1W9 whole entry, change not shown): as the sequence (Q9P1W9 whole entry) above
Protocol: as §3, §4

PIM1 = molecular target: T2, PIM1 (Homo sapiens, UniProt P11309); assay: Pim-1 kinase enzymatic assay (Caliper LC3000, FAM-Pimtide substrate); format: biochemical; conditions: 20 pM PIM1, 10 μM ATP, 90 minutes; read-out: PIM1 LC3K (Ki)
T2 construct: made in house
T2 sequence (P11309 whole entry): as the sequence (P11309 whole entry, change not shown) above
Protocol: as §1, §2

PIM3 = molecular target: T3, PIM3 (Homo sapiens, UniProt Q86V86); assay: Pim-3 kinase enzymatic assay (Caliper LC3000, FAM-Pimtide substrate); format: biochemical; conditions: 55 pM PIM3, 10 μM ATP, 90 minutes; read-out: PIM3 LC3K (Ki)
T3 construct: made in house
Protocol: as §1, §2

Compound: COc1ccccc1-c1nc(C(=O)Nc2cnccc2N2CCC[C@H](N)C2)c(N)s1 [Example 39, (S)-5-amino-N-(4-(3-aminopiperidin-1-yl)pyridin-3-yl)-2-(2-methoxyphenyl)thiazole-4-carboxamide]
Ki (PIM2): 1.69 nM
GI50 (BaF3 PIM1 cells): 375 nM
EC50 (MM1.S cells): 3200 nM
GI50 (BaF3 PIM2 cells): 5100 nM
Ki (PIM1): 0.306 nM
Ki (PIM3): 0.143 nM

Compound: Cc1ccccc1-c1nc(C(=O)Nc2cnccc2N2CCC[C@H](N)C2)c(N)s1 [Example 40, (S)-5-amino-N-(4-(3-aminopiperidin-1-yl)pyridin-3-yl)-2-o-tolylthiazole-4-carboxamide]
Ki (PIM2): 0.725 nM
GI50 (BaF3 PIM1 cells): 164 nM
EC50 (MM1.S cells): 2500 nM
GI50 (BaF3 PIM2 cells): 6500 nM
Ki (PIM1): 0.129 nM
Ki (PIM3): 0.037 nM

Compound: Nc1sc(-c2ccc3cccnc3c2)nc1C(=O)Nc1cnccc1N1CCC[C@H](N)C1 [Example 44, (S)-5-amino-N-(4-(3-aminopiperidin-1-yl)pyridin-3-yl)-2-(quinolin-7-yl)thiazole-4-carboxamide]
Ki (PIM2): 0.512 nM
GI50 (BaF3 PIM1 cells): 38.1 nM
EC50 (MM1.S cells): 191 nM
GI50 (BaF3 PIM2 cells): 1900 nM
Ki (PIM1): 0.032 nM
Ki (PIM3): 0.113 nM

Compound: N[C@H]1CCCN(c2ccncc2NC(=O)c2csc(-c3ccccc3F)n2)C1 [Example 45, (S)-N-(4-(3-aminopiperidin-1-yl)pyridin-3-yl)-2-(2-fluorophenyl)thiazole-4-carboxamide]
Ki (PIM2): 2.78 nM
GI50 (BaF3 PIM1 cells): 613 nM
EC50 (MM1.S cells): 5500 nM
GI50 (BaF3 PIM2 cells): 12500 nM
Ki (PIM1): 0.561 nM
Ki (PIM3): 0.338 nM

Compound: CN(C)C(=O)c1ccc(F)c(-c2nc(C(=O)Nc3cnccc3N3CCC[C@H](N)C3)cs2)c1 [Example 47, (S)-N-(4-(3-aminopiperidin-1-yl)pyridin-3-yl)-2-(5-(dimethylcarbamoyl)-2-fluorophenyl)thiazole-4-carboxamide]
Ki (PIM2): 59.8 nM
GI50 (BaF3 PIM1 cells): 3900 nM
EC50 (MM1.S cells): > 20000 nM
GI50 (BaF3 PIM2 cells): > 20000 nM
Ki (PIM1): 3.98 nM
Ki (PIM3): 2.11 nM

Compound: Nc1sc(-c2c(F)cccc2F)nc1C(=O)Nc1cnccc1N1CCNCC1 [Example 50, 5-amino-2-(2,6-difluorophenyl)-N-(4-(piperazin-1-yl)pyridin-3-yl)thiazole-4-carboxamide]
Ki (PIM2): 6.88 nM
GI50 (BaF3 PIM1 cells): 614 nM
EC50 (MM1.S cells): 743 nM
GI50 (BaF3 PIM2 cells): 1400 nM
Ki (PIM1): 0.5 nM
Ki (PIM3): 0.333 nM

Compound: Nc1sc(-c2cc[nH]n2)nc1C(=O)Nc1cnccc1N1CCC[C@H](N)C1 [Example 51, (S)-5-amino-N-(4-(3-aminopiperidin-1-yl)pyridin-3-yl)-2-(1H-pyrazol-3-yl)thiazole-4-carboxamide]
Ki (PIM2): 0.265 nM
GI50 (BaF3 PIM1 cells): 197 nM
EC50 (MM1.S cells): 156 nM
GI50 (BaF3 PIM2 cells): > 20000 nM
Ki (PIM1): 0.0812 nM
Ki (PIM3): 0.041 nM

The next molecules have a lower Ki (PIM2) than those just listed; values first:

Ki (PIM2): 0.208 nM
GI50 (BaF3 PIM1 cells): 69 nM
EC50 (MM1.S cells): 2000 nM
GI50 (BaF3 PIM2 cells): 3900 nM
Ki (PIM1): 0.049 nM
Ki (PIM3): 0.022 nM
Compound: Nc1sc(-c2cc(F)ccc2F)nc1C(=O)Nc1cnccc1N1CCC[C@H](N)C1 [Example 41, (S)-5-amino-N-(4-(3-aminopiperidin-1-yl)pyridin-3-yl)-2-(2,5-difluorophenyl)thiazole-4-carboxamide]

Ki (PIM2): 0.0939 nM
GI50 (BaF3 PIM1 cells): 30.4 nM
EC50 (MM1.S cells): 121 nM
GI50 (BaF3 PIM2 cells): 2100 nM
Ki (PIM1): 0.036 nM
Ki (PIM3): 0.022 nM
Compound: Nc1sc(-c2ccc(F)cc2F)nc1C(=O)Nc1cnccc1N1CCC[C@H](N)C1 [Example 42, (S)-5-amino-N-(4-(3-aminopiperidin-1-yl)pyridin-3-yl)-2-(2,4-difluorophenyl)thiazole-4-carboxamide]

Ki (PIM2): 0.0185 nM
GI50 (BaF3 PIM1 cells): 45.5 nM
EC50 (MM1.S cells): 237 nM
GI50 (BaF3 PIM2 cells): 3900 nM
Ki (PIM1): 0.061 nM
Ki (PIM3): 0.022 nM
Compound: Nc1sc(-c2cccc(F)c2F)nc1C(=O)Nc1cnccc1N1CCC[C@H](N)C1 [Example 43, (S)-5-amino-N-(4-(3-aminopiperidin-1-yl)pyridin-3-yl)-2-(2,3-difluorophenyl)thiazole-4-carboxamide]
